Among the data in patent US8853230B2, “Inhibitors of JAK” (Portola Pharmaceuticals, Inc., priority 2009, dated 2014) are IC50 values, retold here.

Format in all cases: biochemical
One test concerns the target T1, JAK2 (Homo sapiens, UniProt O60674).
T1 construct: 5 μl of catalytic domain recombinant Kinase enzyme+Tyr peptide substrate (Invitrogen, Calif.); purchased Invitrogen
Kind of test: Z'-LYTE kinase assay, JAK2 tyrosine phosphorylation activity. In short, it runs like this:
(§1)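 Recombinant catalytic-domain kinase was incubated with coumarin/fluorescein-labelled Tyr6 peptide, ATP and compound (1% DMSO final) for 1 h at room temperature. Protease development then ran 1 h at room temperature. Emission ratio at 445/520 nm (excitation 400 nm) gave percent phosphorylation; IC50s came from 4-parameter logistic fits.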

Another test addresses Syk (Homo sapiens, UniProt P43405). As to the kind of experiment: Syk IC50 (Table 1; method not given).
The next test deals with T2, JAK1 (Homo sapiens, UniProt P23458).
T2 construct: 5 μl of catalytic domain recombinant Kinase enzyme+Tyr peptide substrate (Invitrogen, Calif.); purchased Invitrogen
As to the kind of experiment: Z'-LYTE kinase assay, JAK1 tyrosine phosphorylation activity. As to conditions: read-out: JAK 1 IC50. The gist of the method: as §1

Another test deals with T3, JAK3 (Homo sapiens, UniProt P52333).
T3 construct: 5 μl of catalytic domain recombinant Kinase enzyme+Tyr peptide substrate (Invitrogen, Calif.); purchased Invitrogen
As to the kind of experiment: Z'-LYTE kinase assay, JAK3 tyrosine phosphorylation activity. In short, it runs like this: as §1

In another test the target is T4, TYK2 (Homo sapiens, UniProt P29597).
T4 construct: 5 μl of catalytic domain recombinant Kinase enzyme+Tyr peptide substrate (Invitrogen, Calif.); purchased Invitrogen
T4 sequence (P29597 897-1176 limits assumed): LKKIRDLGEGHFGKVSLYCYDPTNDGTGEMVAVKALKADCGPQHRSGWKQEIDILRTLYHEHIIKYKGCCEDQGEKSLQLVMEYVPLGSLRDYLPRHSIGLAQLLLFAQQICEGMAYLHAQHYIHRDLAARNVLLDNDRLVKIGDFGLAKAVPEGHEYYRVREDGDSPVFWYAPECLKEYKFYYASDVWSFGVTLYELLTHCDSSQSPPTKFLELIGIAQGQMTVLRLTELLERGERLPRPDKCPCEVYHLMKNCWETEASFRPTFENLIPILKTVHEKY
As to the kind of experiment: Z'-LYTE kinase assay, TYK2 tyrosine phosphorylation activity. In short, it runs like this: as §1

Structures are written as SMILES.

T1 sequence (O60674 849-1124 limits assumed): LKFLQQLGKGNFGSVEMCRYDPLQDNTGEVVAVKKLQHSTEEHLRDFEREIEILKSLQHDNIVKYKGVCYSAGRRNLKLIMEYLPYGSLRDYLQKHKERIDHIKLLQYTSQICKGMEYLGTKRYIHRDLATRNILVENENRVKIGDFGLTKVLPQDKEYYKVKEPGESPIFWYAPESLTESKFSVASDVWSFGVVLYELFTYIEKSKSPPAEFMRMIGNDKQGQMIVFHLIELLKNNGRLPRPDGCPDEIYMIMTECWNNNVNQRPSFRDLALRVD
T3 sequence (P52333 822-1111 limits assumed): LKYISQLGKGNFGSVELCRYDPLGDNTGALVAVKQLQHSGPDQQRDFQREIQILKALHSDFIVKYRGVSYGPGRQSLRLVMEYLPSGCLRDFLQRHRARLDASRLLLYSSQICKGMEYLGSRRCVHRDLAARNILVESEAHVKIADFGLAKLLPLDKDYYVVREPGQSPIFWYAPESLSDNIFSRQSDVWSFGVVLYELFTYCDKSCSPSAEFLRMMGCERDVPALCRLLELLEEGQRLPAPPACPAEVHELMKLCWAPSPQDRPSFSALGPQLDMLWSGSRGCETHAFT
T2 sequence (P23458 875-1153 limits assumed): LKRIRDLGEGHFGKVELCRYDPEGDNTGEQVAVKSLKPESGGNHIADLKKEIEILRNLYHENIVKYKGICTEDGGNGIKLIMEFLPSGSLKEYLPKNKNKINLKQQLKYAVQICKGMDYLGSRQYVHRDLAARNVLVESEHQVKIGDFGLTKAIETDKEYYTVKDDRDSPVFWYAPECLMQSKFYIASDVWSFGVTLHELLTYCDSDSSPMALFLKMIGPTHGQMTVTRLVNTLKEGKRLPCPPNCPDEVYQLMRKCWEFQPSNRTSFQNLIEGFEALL

`COC(=O)Nc1cccc(Nc2ncc(C(N)=O)c(NCC(F)(F)F)n2)c1` [Example 4, Methyl 3-(5-carbamoyl-4-(2,2,2-trifluoroethylamino)pyrimidin-2-ylamino)phenylcarbamate]: the IC50 (as a rule, the concentration needed to halve the response being measured) against JAK2 fell in the range of 10 to 100 nM; at Syk, 100 to 1000 nM; on JAK1, 10 to 100 nM; against JAK3 it was 10 to 100 nM; at TYK2 it was 10 to 100 nM.
Turning to `NC(=O)c1cnc(Nc2cccc(NC(=O)C3CC3)c2)nc1NCC(F)(F)F` [Example 5, 2-(3-(cyclopropanecarboxamido)phenylamino)-4-(2,2,2-trifluoroethylamino)pyrimidine-5-carboxamide], the IC50 lay within 100 to 1000 nM at JAK2; 100 to 1000 nM on Syk; 100 to 1000 nM at JAK1; 10 to 100 nM on JAK3; 10 to 100 nM against TYK2.
As for `COCC(=O)Nc1cccc(Nc2ncc(C(N)=O)c(NCC(F)(F)F)n2)c1` [Example 6, 2-(3-(2-methoxyacetamido)phenylamino)-4-(2,2,2-trifluoroethylamino)pyrimidine-5-carboxamide], the IC50 at JAK2 was 10 to 100 nM; against Syk, 100 to 1000 nM; at JAK1 it was 10 to 100 nM; on JAK3, 10 to 100 nM; against TYK2 it was 10 to 100 nM.
In the case of `CC(=O)Nc1cccc(Nc2ncc(C(N)=O)c(NCC(F)(F)F)n2)c1` [Example 7, 2-(3-acetamidophenylamino)-4-(2,2,2-trifluoroethylamino)pyrimidine-5-carboxamide], the IC50 fell in the range of 10 to 100 nM against JAK2; 100 to 1000 nM against Syk; 10 to 100 nM at JAK1; 1 to 10 nM against JAK3; 1 to 10 nM on TYK2.
Turning to `NC(=O)c1cnc(Nc2cccc(NC(=O)N3CCCC3)c2)nc1NC1CCCC1` [Example 37, 4-(cyclopentylamino)-2-(3-(pyrrolidine-1-carboxamido)phenylamino)pyrimidine-5-carboxamide], the IC50 on JAK2 was 10 to 100 nM; against Syk, greater than 1000 nM; at JAK1 it was 10 to 100 nM; at JAK3, 1 to 10 nM; on TYK2, 1 to 10 nM.
Regarding `CC(=O)Nc1cccc(Nc2ncc(C(N)=O)c(NCC(=O)N3CCCC3)n2)c1` [Example 65, 2-(3-acetamidophenylamino)-4-(2-oxo-2-(pyrrolidin-1-yl)ethylamino)pyrimidine-5-carboxamide], the IC50 is 100 to 1000 nM against JAK2; greater than 1000 nM at Syk; greater than 1000 nM on JAK1; 10 to 100 nM against JAK3; 10 to 100 nM on TYK2.
Consider `CC(=O)Nc1cccc(Nc2ncc(C(N)=O)c(N[C@@H]3CCCNC3)n2)c1` [Example 66, (R)-2-(3-acetamidophenylamino)-4-(piperidin-3-ylamino)pyrimidine-5-carboxamide], for which the IC50 against JAK2 was 100 to 1000 nM; on Syk it was greater than 1000 nM; at JAK1, 100 to 1000 nM; against JAK3, 100 to 1000 nM; on TYK2, 100 to 1000 nM.
For `CC(=O)Nc1cccc(Nc2ncc(C(N)=O)c(NCc3ccc(Cl)c(Cl)c3)n2)c1` [Example 70, 2-(3-acetamidophenylamino)-4-(3,4-dichlorobenzylamino)pyrimidine-5-carboxamide], the IC50 against JAK2 is 100 to 1000 nM; at Syk, greater than 1000 nM; at JAK1, greater than 1000 nM; at JAK3, 100 to 1000 nM.
`CC(=O)Nc1cccc(Nc2ncc(C(N)=O)c(N[C@H](C)c3ccccc3)n2)c1` [Example 71, (R)-2-(3-acetamidophenylamino)-4-(1-phenylethylamino)pyrimidine-5-carboxamide]: the IC50 was 10 to 100 nM on JAK2, greater than 1000 nM against Syk, 100 to 1000 nM on JAK1 and 1 to 10 nM against JAK3.
In the same order, the values of `CNC(=O)CNc1nc(Nc2cccc(NC(C)=O)c2)ncc1C(N)=O` [Example 72, 2-(3-acetamidophenylamino)-4-(2-(methylamino)-2-oxoethylamino)pyrimidine-5-carboxamide] are 100 to 1000 nM, greater than 1000 nM, 100 to 1000 nM and 10 to 100 nM.
On the same counts, the results for `CC(=O)Nc1cccc(Nc2ncc(C(N)=O)c(NCC#N)n2)c1` [Example 74, 2-(3-acetamidophenylamino)-4-(cyanomethylamino)pyrimidine-5-carboxamide] are 10 to 100 nM, 100 to 1000 nM, 10 to 100 nM and 10 to 100 nM.
On to `CC(=O)Nc1cccc(Nc2ncc(C(N)=O)c(N[C@H](CO)Cc3ccccc3)n2)c1` [Example 76, (S)-2-(3-acetamidophenylamino)-4-(1-hydroxy-3-phenylpropan-2-ylamino)pyrimidine-5-carboxamide], for which the IC50 against JAK2 is 10 to 100 nM; at Syk, greater than 1000 nM; on JAK1, 100 to 1000 nM; on JAK3, 10 to 100 nM; against TYK2, 10 to 100 nM.
`CC(=O)N(C)c1cccc(Nc2ncc(C(N)=O)c(NC(C)C)n2)c1` [Example 77, 4-(isopropylamino)-2-(3-(N-methylacetamido)phenylamino)pyrimidine-5-carboxamide]: the half-inhibitory concentration (IC50) against JAK2 is 10 to 100 nM; against Syk it was greater than 1000 nM; on JAK1, 100 to 1000 nM; against JAK3, 10 to 100 nM; on TYK2, 10 to 100 nM.
On to `CC(=O)N(C)c1cccc(Nc2ncc(C(N)=O)c(NC3CCCC3)n2)c1` [Example 78, 4-(cyclopentylamino)-2-(3-(N-methylacetamido)phenylamino)pyrimidine-5-carboxamide], for which the IC50 at JAK2 is 1 to 10 nM; against Syk, greater than 1000 nM; on JAK1, 10 to 100 nM; at JAK3, 1 to 10 nM; on TYK2 it was 10 to 100 nM.
As to `CC(=O)N(C)c1cccc(Nc2ncc(C(N)=O)c(NCc3ccccc3)n2)c1` [Example 79, 4-(benzylamino)-2-(3-(N-methylacetamido)phenylamino)pyrimidine-5-carboxamide], the IC50 against JAK2 is 10 to 100 nM; at Syk, greater than 1000 nM; at JAK1, 10 to 100 nM; against JAK3 it was 1 to 10 nM; against TYK2, 10 to 100 nM.
On to `CC(=O)Nc1cccc(Nc2ncc(C(N)=O)c(NCCN3CCOCC3)n2)c1` [Example 80, 2-(3-acetamidophenylamino)-4-(2-morpholinoethylamino)pyrimidine-5-carboxamide], for which the IC50 against JAK2 is 100 to 1000 nM; at Syk, greater than 1000 nM; at JAK1, 100 to 1000 nM; at JAK3, 10 to 100 nM; at TYK2 it was 10 to 100 nM.
On to `CC(=O)Nc1cccc(Nc2ncc(C(N)=O)c(NC[C@H](C)c3ccccc3)n2)c1` [Example 81, (R)-2-(3-acetamidophenylamino)-4-(2-phenylpropylamino)pyrimidine-5-carboxamide], for which the IC50 against JAK2 is 10 to 100 nM; on Syk it was greater than 1000 nM; at JAK1, 100 to 1000 nM; on JAK3, 10 to 100 nM; against TYK2, 10 to 100 nM.
With `CC(=O)Nc1cccc(Nc2ncc(C(N)=O)c(NC[C@H](C)O)n2)c1` [Example 82, (S)-2-(3-acetamidophenylamino)-4-(2-hydroxypropylamino)pyrimidine-5-carboxamide], the IC50 at JAK2 is 10 to 100 nM; against Syk, 100 to 1000 nM; at JAK1, 100 to 1000 nM; at JAK3, 10 to 100 nM; against TYK2, 10 to 100 nM.
As for `CC(=O)Nc1cccc(Nc2ncc(C(N)=O)c(NC[C@@H](O)CO)n2)c1` [Example 83, (R)-2-(3-acetamidophenylamino)-4-(2,3-dihydroxypropylamino)pyrimidine-5-carboxamide], the IC50 at JAK2 was 100 to 1000 nM; against Syk it was greater than 1000 nM; on JAK1, 100 to 1000 nM; at JAK3 it was 10 to 100 nM; on TYK2 it was 10 to 100 nM.
Regarding `COC(CNc1nc(Nc2cccc(NC(C)=O)c2)ncc1C(N)=O)c1ccccc1` (centres unmarked) [Example 84, 2-(3-acetamidophenylamino)-4-(2-methoxy-2-phenylethylamino)pyrimidine-5-carboxamide], the IC50 against JAK2 is 10 to 100 nM; against Syk, 100 to 1000 nM; at JAK1, 10 to 100 nM; against JAK3 it was 1 to 10 nM; on TYK2, 10 to 100 nM.
Take `NC(=O)c1cnc(Nc2ccc(F)c(NC(=O)N3CCC3)c2)cc1NCc1cccc(F)c1` [Example 305, 6-(3-(azetidine-1-carboxamido)-4-fluorophenylamino)-4-(3-fluorobenzylamino)nicotinamide]: the IC50 was 100 to 1000 nM against JAK2, greater than 1000 nM on Syk, 100 to 1000 nM at JAK1 and 1 to 10 nM at JAK3.
For `CN(C)[C@@H]1CCN(C(=O)Nc2cccc(Nc3cc(NCc4cccc(F)c4)c(C(N)=O)cn3)c2)C1` [Example 306, (R)-6-(3-(3-(dimethylamino)pyrrolidine-1-carboxamido)phenylamino)-4-(3-fluorobenzylamino)nicotinamide], the half-inhibitory concentration (IC50) is 10 to 100 nM against JAK2, greater than 1000 nM against Syk, 100 to 1000 nM on JAK1 and less than 1 nM on JAK3.
